Experimental data from patent US4786643A, “Treatment of migraine, cluster headaches and trigeminal neuralgia” (Beecham Group p.l.c., priority 1985, dated 1988).

How the values were obtained:
Format in all cases: in vivo
[1] = system: von Bezold-Jarisch reflex evoked by 5HT; test: Antagonism of the von Bezold-Jarisch reflex evoked by 5HT in the anaesthetised rat; details: iv, anaesthetised male rats, i.v., 5-HT 6-20 μg/kg i.v., heart rate, read-out: ED50 (reduction of the 5HT-evoked response to 50% of the control response)
Experimental: 1. Antagonism of the von Bezold-Jarisch reflex
The compounds were evaluated for antagonism of the von Bezold-Jarisch reflex evoked by 5HT in the anaesthetised rat according to the following method:
Male rats 250-350 g, were anaesthetised with urethane (1.25 g/kg intraperitoneally) and blood pressure and heart rate recorded as described by Fozard J. R. et al., J. Cardiovasc. Pharmacol. 2, 229-245 (1980). A submaximal dose of 5-HT (6-20 μg/kg) was given repeatedly by the intravenous route and changes in heart rate quantified. Test Compounds were given intravenously and the concentration required to reduce the 5HT-evoked response to 50% of the control response (ED50) was then determined.

[2] = system: emetic response (cisplatin); test: Inhibition of Chemotherapy Induced Nausea and Vomiting (cisplatin, ferret); details: administered twice, cisplatin 10 mg/kg i.v., 5 hours
Excerpt: 2. Inhibition of Chemotherapy Induced Nausea and Vomiting
Adult male ferrets (initial body weight 1.3-1.8 kg) were individually housed, fed once daily (200 g Chum Puppy Food plus 50 g Lab Diet A) and were supplied with water ad libitum. Additionally, each animal was given 1/2 pint of milk daily during an acclimatization period.
To facilitate intravenous administration of drugs, a chronic indwelling catheter was surgically implanted into the jugular vein using a modification of the technique described by Florczyk and Schurig, 1981 (Pharmacol. Biochem. Behav., 14, 255-257). Prior to surgery each animal was sedated with ketamine hydrochloride (40 mg/animal intramuscularly) and anaesthetised with a halothane-N2 O--O2 mixture. A four day recovery period was allowed before commencement of an experiment.
For each group of animals, a preliminary study was carried out to establish an intravenous dose level of cisplatin which would give a consistent and reproducible emetic response. The appropriate dose of test compound was administered intravenously twice to each animal; 30 minutes before and 45 minutes after dosing with cisplatin. Running controls received vehicle and cisplatin only.
A single emetic response commenced when an animal assumed a characterrc posture with retching and was concluded when either vomitus was expelled or was present in the mouth as evidenced by a chewing movement.
All solutions were prepared in water for injection B. P. Cisplatin was prepared from vials of Neoplatin for injection (Mead Johnson; dose volume of […]).

[3] = system: Radiation Induced Nausea and Vomiting; test: Inhibition of Radiation Induced Nausea and Vomiting (X-ray, ferret); details: for No. of animals completely protected/No. of animals used: 2 to 4 minutes before irradiation; for Latency period, Group Mean (±s.e.m.): taken as 120 minutes in animals completely protected, vehicle 19.4 (±1.1); for No. of emetic episodes, Group Mean (±s.e.m.): vehicle 28.8 (±1.3)
Excerpt: 3. Inhibition of Radiation Induced Nausea and Vomiting.
Ferrets with surgically implanted indwelling venous cannulae were restrained in a purposely constructed perspex box, and exposed to ionising radiation from an X-ray source. The X-ray source (Machlett, Model OEG-50, Tungsten Anode) was approximately 25 cm from the upper surface of the animal, and was operated at 50 Kv and 20 mA through a 1 mm beryllium window and 0.18 mm aluminium filtration. The whole body of each animal was irradiated for 10.4 minutes at a dose rate of 300 rad/minute. At the completion of irradiation animals were put back in their pens and observed for at least 120 minutes. The time from the start of irradiation to the first emetio episode (latency period), and the number of emetic episodes were recorded. […] The test compound was injected intravenously 2 to 4 minutes before the start of irradiation.

[4] = system: arrhythmias after coronary ligation; test: Antiarrhythmic Activity, dog coronary ligation model; details: for reduction of ectopic beats on day 2 (max. effects) / antagonism of arrhythmias on day 2 (max. effects): 48 h after coronary ligation; for reduction of ectopic beats on day 1 (max. effects) / antagonism of arrhythmias on day 2 (max. effects): 2. dog
Experimental: 4. Antiarrhythmic Activity
The compound of Example 9 was tested for antiarrhythmic activity in the dog coronary ligation model (method: Harris, A., Circulation Res. 1, 1318-1328, 1950).

`COc1cc(N)c(Cl)cc1C(=O)NC1CCN2CCCC1C2` (racemic) [Example 9, (±)4-amino-5-chloro-2-methoxy-N-(4[1-azabicyclo-3,3,1]-nonyl])-benzamide] was tested, and the ED50 [1] was 3.3 µg/kg, the “No. of animals completely protected/No. of animals used” value ([2]; 0.65 mg/kg i.v.) was 1/6 and the “No. of animals completely protected/No. of animals used” value ([2]; 1.25 mg/kg i.v.) was 4/6. For the same compound, the “No. of animals completely protected/No. of animals used” value ([2]; 2.5 mg/kg i.v.) was 3/6, the “No. of animals completely protected/No. of animals used” value ([3]; 0.25 mg/kg i.v.) was 1/4 and the “Latency period, Group Mean (±s.e.m.)” value ([3]; 0.25 mg/kg i.v., P < 0.05) was 64.0 (±18.7). For the same compound, the “No. of emetic episodes, Group Mean (±s.e.m.)” value ([3]; 0.25 mg/kg i.v., P < 0.05) was 7.8 (±3.3), the “No. of animals completely protected/No. of animals used” value ([3]; 1.25 mg/kg i.v.) was 2/5 and the “Latency period, Group Mean (±s.e.m.)” value ([3]; 1.25 mg/kg i.v., P < 0.01) was 79.2 (±16.7). The “No. of emetic episodes, Group Mean (±s.e.m.)” value ([3]; 1.25 mg/kg i.v., P < 0.01) was 1.2 (±0.6), the “effect on day 1-arrhythmias (max. effects)” value ([4]; 1. dog, 24 h after coronary ligation, 0.5-3.0 mg/kg) was “no effect” and the “reduction of ectopic beats on day 2 (max. effects)” value ([4]; 1. dog, 2.0 mg/kg) was 41%. The “reduction of ectopic beats on day 2 (max. effects)” value ([4]; 1. dog, 3.0 mg/kg) was 76%, the “reduction of ectopic beats on day 1 (max. effects)” value (shortened to “reduction … on day 1 (max. effects)”) ([4]; 24 h after coronary ligation, 20 mg/kg (so in the source)) was 69% and the “reduction … on day 1 (max. effects)” value ([4]; 24 h after coronary ligation, 1,0 mg/kg) was 63%. The “reduction … on day 1 (max. effects)” value ([4]; 24 h after coronary ligation, 3,0 mg/kg) was 82%, the “antagonism of arrhythmias on day 2 (max. effects)” value ([4]; 0.5 mg/kg) was 89% and the “antagonism of arrhythmias on day 2 (max. effects)” value ([4]; 1.0 mg/kg) was 100%.
